Experimental data: US20030036111A1, “Mitochondrial protein” (priority 2001, published 2003)

Columns and labels:
Assay type in all cases: biochemical
[1] = molecular target: T1, human DNC (mitochondrial deoxynucleotide carrier) (Homo sapiens, UniProt Q9HC21); assay: Dependence of DNC activity ([α-35S]dATP uptake) on internal substrate; conditions: internal substrate 10 mM; 2 min
T1 construct: Amino acids are numbered from 1-320; made in house; host or cells: E. coli BL21(DE3), pET21b; inclusion bodies solubilized in sarkosyl, Ni-NTA purified
T1 sequence (Q9HC21 2-320 limits assumed): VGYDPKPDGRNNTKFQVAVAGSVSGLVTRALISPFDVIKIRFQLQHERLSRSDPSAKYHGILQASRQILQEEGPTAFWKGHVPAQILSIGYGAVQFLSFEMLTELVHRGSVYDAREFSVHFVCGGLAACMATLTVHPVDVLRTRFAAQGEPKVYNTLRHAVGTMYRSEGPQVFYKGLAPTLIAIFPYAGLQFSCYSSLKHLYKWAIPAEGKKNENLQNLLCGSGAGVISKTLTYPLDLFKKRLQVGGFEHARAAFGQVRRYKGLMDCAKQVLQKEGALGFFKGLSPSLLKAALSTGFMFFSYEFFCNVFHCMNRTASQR
Experimental: FIG. 3. Time course of dATP/ADP exchange and substrate specificity of human DNC. (a) Time course of [α-35 S]dATP/ADP exchange in proteoliposomes reconstituted with the recombinant DNC. [α-35 S]dATP (1 mM) was added to proteoliposomes containing 10 mM ADP (⋄) or 10 mM NaCl (∇). (b) Dependence of DNC activity on internal substrate. Proteoliposomes were preloaded internally with various substrates (concentration 10 mM). Trans-port was started by addition of […] [α-35 S]dATP and stopped after 2 min. The values are means 6 SD of at least three experiments. (c) Inhibition of the rate of [α-35 S]dATP uptake by external substrates. Proteoliposomes were preloaded internally with 10 mM ADP. […] External substrates (concentration 0.5 mM) were added together with [α-35 S]dATP. The extents of inhibition (%) from a representative experiment are reported.
(§1) The recombinant protein in sarkosyl was reconstituted into liposomes in the presence of substrates (10). […] Transport was measured at 25° C. with internal and external pHs at 6.8. It was started by adding [α-35S]dATP or [^14C]-ADP and terminated after 2 min by addition of 100 mM of p-chloromercuribenzene sulfonate (10). Entrapped radioactivity was counted (10). The initial transport rate was calculated from the radioactivity taken up by proteoliposomes within 2 min (in the initial linear range). Other transport activities were assayed similarly (10).

[2] = molecular target: T1, human DNC (mitochondrial deoxynucleotide carrier); assay: Kinetics of [α-35S]dATP/ADP exchange in proteoliposomes reconstituted with recombinant DNC; conditions: for Km: external substrate, internal ADP or dADP 10 mM, read-out: transport affinity (Km)
Experimental: FIG. 3. Time course of dATP/ADP exchange and substrate specificity of human DNC. (a) Time course of [α-35 S]dATP/ADP exchange in proteoliposomes reconstituted with the recombinant DNC. [α-35 S]dATP (1 mM) was added to proteoliposomes containing 10 mM ADP (⋄) or 10 mM NaCl (∇). (b) Dependence of DNC activity on internal substrate. Proteoliposomes were preloaded internally with various substrates (concentration 10 mM). Trans-port was started by addition of […] [α-35 S]dATP and stopped after 2 min. The values are means 6 SD of at least three experiments. (c) Inhibition of the rate of [α-35 S]dATP uptake by external substrates. Proteoliposomes were preloaded internally with 10 mM ADP. Transport was started by adding […] [α-35 S]dATP and stopped after 2 min. External substrates (concentration 0.5 mM) were added together with [α-35 S]dATP. The extents of inhibition (%) from a representative experiment are reported. The control value for uninhibited exchange was 0.45 mmol/min per gram of protein.
The recombinant protein in sarkosyl was reconstituted into liposomes in the presence of substrates (10). Both cardiolipin (1.14 mg/ml) and EDTA (1 mM) were added. Transport was measured at 25° C. with internal and external pHs at 6.8. It was started by adding [α-35S]dATP or [^14C]-ADP and terminated after 2 min by addition of 100 mM of p-chloromercuribenzene sulfonate (10). Entrapped radioactivity was counted (10). The initial transport rate was calculated from the radioactivity taken up by proteoliposomes within 2 min (in the initial linear range). Other transport activities were assayed similarly (10). The amount of DNC incorporated into liposomes was measured as described (11) and varied between 15 and 20% of the protein added to the reconstitution mixture.

[3] = molecular target: T1, human DNC (mitochondrial deoxynucleotide carrier); assay: Homo-exchange of other carrier substrates in DNC proteoliposomes; conditions: internal concentration 10 mM; external concentration 1 mM
Experimental: as §1

| rate of [α-35 S]dATP uptake into proteoliposomes with internal substrate [1] | Km [2] | homo-exchange catalysed by reconstituted DNC [3] | rate constant of exchange of [α-35 S]dATP for dADP or ADP (first-order kinetics) ([2]; reconstituted human DNC, 25° C., pH 6.8) | SMILES |
| --- | --- | --- | --- | --- |
| highest rates | 42.6 ± 4.7 µM | – | – | Nc1ncnc2c1ncn2[C@@H]1O[C@H](COP(=O)(O)OP(=O)(O)O)[C@@H](O)[C@H]1O [ADP] |
| virtually no activity | – | did not catalyse | – | C[N+](C)(C)CC(O)CC(=O)[O-] (stereo not drawn) [carnitine] |
| – | 106 ± 15 µM | – | 0.02 min⁻¹ | Nc1ncnc2c1ncn2[C@H]1C[C@H](O)[C@@H](COP(=O)(O)OP(=O)(O)OP(=O)(O)O)O1 [dATP] |
| – | – | did not catalyse | – | NC(=O)CC[C@H](N)C(=O)O [glutamine] |
| – | – | did not catalyse | – | O=C(O)CC(O)C(=O)O (stereo not drawn) [malate] |
| – | – | did not catalyse | – | NCCC[C@H](N)C(=O)O [ornithine] |

| SMILES | rate of [α-35 S]dATP uptake into proteoliposomes with internal substrate [1] | Km [2] | homo-exchange catalysed by reconstituted DNC [3] | rate constant of exchange of [α-35 S]dATP for dADP or ADP (first-order kinetics) ([2]; reconstituted human DNC, 25° C., pH 6.8) |
| --- | --- | --- | --- | --- |
| N[C@@H](CCC(=O)O)C(=O)O [glutamate] | – | – | did not catalyse | – |
| O=C(O)CCC(=O)C(=O)O [oxoglutarate] | virtually no activity | – | did not catalyse | – |
